Reference: patent US20250099448A1, “HETEROCYCLIC COMPOUNDS” (Hoffmann-La Roche Inc., priority 2022, published 2025)
pIC50: −log10 of the molar value.

Target: T1, MAGL protein (Homo sapiens, UniProt Q99685)
T1 sequence (Q99685 1-303): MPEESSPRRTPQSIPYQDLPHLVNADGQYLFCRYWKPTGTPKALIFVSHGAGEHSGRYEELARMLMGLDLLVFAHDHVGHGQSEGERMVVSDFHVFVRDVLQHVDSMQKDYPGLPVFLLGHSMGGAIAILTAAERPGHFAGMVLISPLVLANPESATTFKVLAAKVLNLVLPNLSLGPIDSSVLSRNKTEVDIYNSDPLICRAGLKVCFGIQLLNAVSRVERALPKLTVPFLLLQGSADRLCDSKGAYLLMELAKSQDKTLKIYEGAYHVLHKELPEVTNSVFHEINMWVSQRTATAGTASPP
Test: 2-AG assay: MAGL inhibitory activity by hydrolysis of 2-arachidonoylglycerol to arachidonic acid, followed by mass spectrometry
Type: biochemical
Settings: 8 μM 2-arachidonoylglycerol, 15 min preincubation, 30 min reaction at RT, RapidFire MS readout
Outline: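 Activity was measured by RapidFire SPE–triple-quad MS as the ratio of arachidonic acid to d8-arachidonic acid after 2-AG hydrolysis (8 μM substrate, 30 min, RT, acetonitrile quench). Compounds, tested from 12.5 μM down to […], were first preincubated 15 min with MAGL in TRIS/EDTA/Tween-20 buffer containing 2.5% DMSO.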

SMILES | pIC50
Cc1cc(C2CC2)n(CC2CC3(C2)CN(C(=O)N2CC4(CC(c5nc(C6CC6)n[nH]5)C4)C2)C3)n1 [compound 846] | 9.11
Cc1cc(C2CC2)nn1CC1CC2(C1)CN(C(=O)N1CC3(CC(c4nc(C5CC5)n[nH]4)C3)C1)C2 [compound 847] | 9.28
N=S(=O)(c1cccc(OC2CC3(C2)CN(C(=O)N2CC4(CC(c5nc(C6CC6)n[nH]5)C4)C2)C3)c1)C(F)(F)F (centres unmarked) [compound 848] | 9.17
O=C(N1CC2(CC(c3nc(C(F)(F)F)n[nH]3)C2)C1)N1CC2(CN(Cc3ccc(S(=O)(=O)C(F)(F)F)cc3)C2)C1 [compound 850] | 7.86
O=C(N1CC2(CC(Cc3ccc(S(=O)(=O)C4CC4)cc3)C2)C1)N1CC2(CC(c3nc(C4CC4)n[nH]3)C2)C1 [compound 859] | 9.72
O=C(N1CC2(CC(Cn3cnc(C4(C(F)(F)F)CC4)c3)C2)C1)N1CC2(CC(c3nc(C4CC4)n[nH]3)C2)C1 [compound 860] | 8.54
O=C(N1CC(C23CC(Cc4ccc(C(F)(F)F)nc4)(C2)C3)C1)N1CC2(CC(c3nc(C4CC4)n[nH]3)C2)C1 [compound 866] | 7.72
CCc1ccc(C(=O)N2CCN(C(=O)N3CC4(CC(c5nnc(C6CC6)[nH]5)C4)C3)CC2)cc1 [compound 869] | 6.94
O=C(N1CC(c2ccc(-n3ccc(C(F)(F)F)n3)cc2)C1)N1CC2(CC(c3nnc(C4CC4)[nH]3)C2)C1 [compound 873] | 9.17
O=C(N1CC(c2ccc(-n3nc(C4CC4)cc3C(F)F)cc2)C1)N1CC2(CC(c3nnc(C4CC4)[nH]3)C2)C1 [compound 875] | 9.48
Cc1nc(C)c(CN2CC3(C2)CN(C(=O)N2CC4(CC(c5nnc(C6CC6)[nH]5)C4)C2)C3)s1 [compound 877] | 7.82
N#Cc1ccc(CN2CC3(C2)CN(C(=O)N2CC4(CC(c5nc(C6CC6)n[nH]5)C4)C2)C3)c(C(F)(F)F)c1 [compound 882] | 8.74
Cc1cc(C(F)F)n(CC2CC3(C2)CN(C(=O)N2CC4(CC(c5nc(C6CC6)n[nH]5)C4)C2)C3)n1 [compound 883] | 9.41
CC(C)(C)c1noc(CN2CC3(C2)CN(C(=O)N2CC4(CC(c5nnc(C6CC6)[nH]5)C4)C2)C3)n1 [compound 886] | 8.20
O=C(N1CC2(CC(c3nnc(C4CC4)[nH]3)C2)C1)N1CC2(CN(Cc3cnn4ccccc34)C2)C1 [compound 887] | 8.22
O=C(N1CC2(CC(c3nnc(C4CC4)[nH]3)C2)C1)N1CC2(CN(Cc3nc(-c4ccccc4)no3)C2)C1 [compound 888] | 8.55
CS(=O)(=O)c1cc(C(F)(F)F)ccc1CN1CC2(C1)CN(C(=O)N1CC3(CC(c4nc(C5CC5)n[nH]4)C3)C1)C2 [compound 889] | 8.56
COc1cc(Cl)ccc1CN(C)CC1CN(C(=O)N2CC3(CC(c4nnc(C5CC5)[nH]4)C3)C2)C1 [compound 894] | 7.11
Cc1nc(CN2CC3(C2)CN(C(=O)N2CC4(CC(c5nnc(C6CC6)[nH]5)C4)C2)C3)cs1 [compound 896] | 6.68
Cc1nc(C)c(CN2CC3(C2)CN(C(=O)N2CC4(CC(c5nnc(C6CC6)[nH]5)C4)C2)C3)o1 [compound 898] | 6.66
O=C(N1CC2(CC(c3nc(C4CC4)n[nH]3)C2)C1)N1CC2(CN(Cc3cc(C4CC4)n[nH]3)C2)C1 [compound 900] | 7.60
Cn1nccc1CN1CC2(C1)CN(C(=O)N1CC3(CC(c4nc(C5CC5)n[nH]4)C3)C1)C2 [compound 901] | 6.87
O=C(N1CCC(OCc2ccc(OC(F)(F)F)cc2F)CC1)N1CC2(CC(c3nc(C4CC4)n[nH]3)C2)C1 [compound 905] | 8.23
CS(=O)(=O)c1ccccc1C12CC(C3CN(C(=O)N4CC5(CC(c6nc(C7CC7)n[nH]6)C5)C4)C3)(C1)C2 [compound 909] | 9.29
O=C(N1CC2(CCC(Cc3ccc(C(F)(F)F)cn3)C2)C1)N1CC2(CC(c3nc(C4(O)CC4)n[nH]3)C2)C1 (centres unmarked) [compound 927] | 8.60
O=C(N1CC(C23CC(Cc4nnc(C5CC5)o4)(C2)C3)C1)N1CC2(CC(c3nc(C4CC4)n[nH]3)C2)C1 [compound 928] | 8.60
O=C(N1CC2(CCC(Cc3ncc(F)cc3F)C2)C1)N1CC2(CC(c3nc(C4(O)CC4)n[nH]3)C2)C1 (centres unmarked) [compound 929] | 8.41
O=C(N1CC(c2ccc(-n3cnc(C(F)(F)F)n3)cc2)C1)N1CC2(CC(c3nnc(C4CC4)[nH]3)C2)C1 [compound 930] | 9.41
O=C(N1CC(c2ccc(-n3cnc(C4CC4)n3)cc2)C1)N1CC2(CC(c3nnc(C4CC4)[nH]3)C2)C1 [compound 934] | 8.35
O=C(N1CC(c2ccc(N3CC4(CCCC4)C3)nc2)C1)N1CC2(CC(c3nc(C4(O)CC4)n[nH]3)C2)C1 [compound 937] | 8.80

Second part, the compound after the results:

pIC50 | SMILES
10.15 | N=S(=O)(c1ccc(CC2CC3(C2)CN(C(=O)N2CC4(CC(c5nc(C6CC6)n[nH]5)C4)C2)C3)c(F)c1)C(F)(F)F (centres unmarked) [compound 849]
9.64 | O=C(N1CC(c2ccc(-c3cc(C(F)(F)F)n[nH]3)cc2)C1)N1CC2(CC(c3nnc(C4CC4)[nH]3)C2)C1 [compound 851]
10.70 | O=C(N1CC2(CC(Cc3ccc(OC(F)(F)F)cc3)C2)C1)N1CC2(CC(c3nc(C4CC4)n[nH]3)C2)C1 [compound 857]
8.80 | O=C(N1CC2(CC(Cc3nnc(C4(C(F)(F)F)CC4)o3)C2)C1)N1CC2(CC(c3nnc(C4CC4)[nH]3)C2)C1 [compound 862]
10.00 | N#Cc1cc(CC2CC3(C2)CN(C(=O)N2CC4(CC(c5nc(C6CC6)n[nH]5)C4)C2)C3)cc(C(F)(F)F)c1 [compound 867]
8.55 | Cc1c(C(F)(F)F)n[nH]c1CN1CC2(C1)CN(C(=O)N1CC3(CC(c4nnc(C5CC5)[nH]4)C3)C1)C2 [compound 874]
8.83 | CP(C)(=O)c1cc(CC2CC3(C2)CN(C(=O)N2CC4(CC(c5nnc(C6CC6)[nH]5)C4)C2)C3)cc(C(F)(F)F)c1 [compound 884]
8.91 | CP(C)(=O)c1ccc(CC2CC3(C2)CN(C(=O)N2CC4(CC(c5nnc(C6CC6)[nH]5)C4)C2)C3)c(C(F)(F)F)c1 [compound 890]
6.51 | Cc1c(CN2CC3(C2)CN(C(=O)N2CC4(CC(c5nnc(C6CC6)[nH]5)C4)C2)C3)cnn1C [compound 897]
10.52 | COC(=O)c1ccc(CC2CC3(C2)CN(C(=O)N2CC4(CC(c5nc(C6CC6)n[nH]5)C4)C2)C3)cc1OC(F)(F)F [compound 911]
10.15 | COC(=O)c1cc(CC2CC3(C2)CN(C(=O)N2CC4(CC(c5nc(C6CC6)n[nH]5)C4)C2)C3)ccc1OC(F)(F)F [compound 912]
9.36 | NC(=O)c1ccc(CC2CC3(C2)CN(C(=O)N2CC4(CC(c5nc(C6CC6)n[nH]5)C4)C2)C3)cc1OC(F)(F)F [compound 913]
9.57 | NC(=O)c1cc(CC2CC3(C2)CN(C(=O)N2CC4(CC(c5nc(C6CC6)n[nH]5)C4)C2)C3)ccc1OC(F)(F)F [compound 914]
8.18 | CP(C)(=O)c1ccc(CC2CC3(C2)CN(C(=O)N2CC4(CC(c5nnc(C6CC6)[nH]5)C4)C2)C3)cc1 [compound 926]
6.86 | O=C(N1CC2(CC(c3nnc(C4CC4)[nH]3)C2)C1)N1CC2(C1)CN(c1cncc(F)c1)C2 [compound 936]
9.54 | O=C(N1CC2(CC(c3nnc(C4CC4)[nH]3)C2)C1)N1CC2(CC(c3ccc(C(F)(F)F)cc3F)C2)C1 [compound 938]
8.47 | CS(=O)(=O)c1ccc(C2CC3(C2)CN(C(=O)N2CC4(CC(c5nnc(C6CC6)[nH]5)C4)C2)C3)cc1 [compound 939]
